According to PubChem BioAssay (NCI):
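Each compound was tested at five concentrations against cells in 96-well plates for 48 hours. GI50 = concentration required for 50% inhibition of growth. TGI is the concentration that stops growth completely.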

What was measured:
Experiment in all cases: DTP human tumour cell line panel, 48 h
CCRF-CEM leukemia = tested on: CCRF-CEM leukemia
BT-549 breast = tested on: BT-549 breast
SR leukemia = tested on: SR leukemia
DU-145 prostate = tested on: DU-145 prostate
SF-295 CNS = tested on: SF-295 CNS
M14 melanoma = tested on: M14 melanoma

Row | SMILES | GI50 (CCRF-CEM leukemia) [µM] | TGI (CCRF-CEM leukemia) [µM] | GI50 (BT-549 breast) [µM] | TGI (BT-549 breast) [µM] | GI50 (SR leukemia) [µM] | TGI (SR leukemia) [µM] | GI50 (DU-145 prostate) [µM] | TGI (DU-145 prostate) [µM] | GI50 (SF-295 CNS) [µM] | TGI (SF-295 CNS) [µM] | GI50 (M14 melanoma) [µM] | TGI (M14 melanoma) [µM]
1 | C(=C\c1nc2ccccc2s1)/c1ccc(N2CCOCC2)s1 | 55.7 | > 100 | 34.6 | > 100 | 58.9 | > 100 | 48.8 | > 100 | 24.2 | 95.4 | > 100 | > 100
2 | CC(=O)OC1CC(C)c2c(Cl)ncnc21 (stereo unspecified) | 50.1 | > 100 | > 100 | > 100 | 78.2 | > 100 | > 100 | > 100 |  |  | > 100 | > 100
3 | COc1ccc(CCN2COc3ccc4ccc(=O)oc4c3C2)cc1OC |  | 54.8 |  | > 100 |  | 50.5 |  | > 100 |  | > 100 |  | > 100
4 | COc1ccc(OC)c(-c2cc(C(=O)O)c3cc4ccccc4cc3n2)c1 |  |  |  | > 100 |  | > 100 |  | > 100 |  | > 100 |  | > 100
5 | CS(=O)(=O)c1ccc(-c2[nH]c3ccc(F)cc3c2/C=N/NC(N)=S)cc1 | 0.366 | 27.2 | 1.61 | 34.4 | 0.329 | 32.8 | 2.24 | > 100 | 0.899 | 13.1 | 0.312 | 22.3
6 | COc1ccc2cc(C(=O)/C=C/c3ccco3)ccc2c1 |  |  | 20.4 | 43.8 | 16.2 | 68.2 | 23.9 | 88.6 | 38.8 | > 100 | 0.19 | 12.6
7 | O=c1cc(-c2ccccc2)nc2cc(-c3ccco3)[nH]n12 | 16.3 | > 100 | 14.8 | > 100 | 3.14 | 82.5 | 19.5 | 79.7 | 3.64 | 25.6 | 9.45 | > 100
8 | COC(=O)c1cc(NC(=O)CN(CCN(CC(=O)O)CC(=O)Nc2ccc(O)c(C(=O)OC)c2)CC(=O)O)ccc1O | 30.9 | > 100 | 52.1 | > 100 | 6.06 | 48.7 | 31.9 | > 100 | 25.8 | > 100 | 41.9 | > 100
9 | Cc1nc2sc(C(=O)Nc3cccc(Cl)c3C)c(N)c2cc1C(=O)c1ccccc1 | 0.18 | > 50 | 0.355 | > 13.6 | 0.131 | 16.9 | 0.524 | > 50 | 0.179 | > 10.6 | 0.214 | > 50
10 | Cc1cc2c(=O)c3ccccc3oc2c(C#N)c1C |  | > 100 |  |  |  | > 100 |  | > 100 |  | > 100 |  | > 100
